How the values were obtained:
CD4+ T cells = assay: HLA class II T-cell proliferation assay (ProImmune, CFSE); assay type: cell-based, human; details: 7 days; for Number of positive donors: 21 donor samples, positive = over 0.02% stimulation above background; for Number of positive donors / Strength of response: mean in % above the background: 5 μM peptide; for Strength of response: mean in % above the background: CD4+ T-cell proliferation (CFSE)
Text: The experiments as follows summarize the results of T-cell Proliferation Assays of selected MHC class II TUMAPs. Nine of 10 tested peptide antigens tested positive for immunogenicity. […] Individual peptide antigens stimulated the CD4+ T-cell proliferation in up to 6 donors. […] Thus, it can be concluded that the newly tested peptides also have a high potential to induce T-cell responses in vaccine trials.
In order to characterize selected peptides for their potential especially as vaccine candidates, their in vitro immunogenicity was determined by analysis of T-cell proliferation using a commercial T-cell Proliferation Assay from the company ProImmune.
Healthy donor CD8-depleted blood cells samples were tested with the selected peptides. The peptides that induce the proliferation of CD4+ T cells can potentially result in the development of a helper T-cell immune response, and therefore are considered to be immunogenic. The proliferation of CD4+ T cells was determined using carboxyfluorescein succinimidyl ester (CFSE) labelling. In proliferating cells, CFSE is distributed evenly to dividing cells. Thus, the proliferation can be measured as a decrease in CFSE fluorescence in the cells as analyzed.
Peripheral blood mononuclear cell (PBMC) samples from healthy human donors were selected from the ProImmune cell bank based on HLA-DRB1 allele expression. CD8^+ T-cells were depleted from donor blood samples prior to use to avoid a false-positive response. The remaining CD4^+ T cells were labelled with CFSE and subsequently incubated with 5 μM of each selected peptide. Each peptide was tested in six replicated wells. The background was measured on each plate in six unstimulated control wells.
After an incubation period of 7 days the cells were co-stained with anti-CD4 antibody and analyzed by flow cytometry. The degree of proliferation was determined by measuring a reduction in CFSE intensity.
The evaluation of flow cytometric data was performed using FlowJo Software (Tree Star, Inc.). The results of flow cytometric analysis were expressed as the ratio of the CD4^+ dim population to the total CD4^+ population. The degree of proliferation was expressed as percentage of stimulation above background, i.e. proportion of antigen stimulated CD4^+ CFSE dim cells minus the proportion of CD4^+ CFSE dim cells from unstimulated control wells. For each sample, a mean and the corresponding standard error of the mean (SEM) of the six replicates were calculated.
Donors were chosen by HLA-DRB1 allele expression. The other two HLA class II loci (DQ and DP) have not been included into the analysis. The interesting DRB1 alleles were selected according to the frequencies of predicted peptide binding based on […] algorithm (Rammensee et al., 1999). For HLA-DR, binding was defined by a […] binding prediction score equal or greater than 18. This threshold score for binding was defined based on the analysis of binding scores of known published promiscuous HLA-DR ligands (Table 24).
All DRB1 alleles with binding frequency over 20% over all selected peptides were requested to be included into the donor panel) by ProImmune. 4 other rare DRB1 alleles (DRB1*10:01, DRB1*16:01, DRB1*08:01, and DRB1*13:03) were requested additionally.
The antigen-stimulated proliferation of CD4^+ T cells was considered as an indicator of in vitro immunogenicity and was investigated in a commercially available T-cell Proliferation Assay from ProImmune. The degree of antigen-stimulated CD4^+ T-cell proliferation was expressed as a percentage of stimulation above background. A response over 0.02% stimulation above background with SEM=2 (i.e. values two standard errors greater than background) was considered to be positive.

CD8+ T cells = assay: In vitro immunogenicity of HLA-A*24 peptides (CD8+ T-cell priming with aAPCs, multimer staining); assay type: cell-based, human
Method: In order to obtain information regarding the immunogenicity of the TUMAPs of the present invention, the inventors performed investigations using an in vitro T-cell priming assay based on repeated stimulations of CD8+ T cells with artificial antigen presenting cells (aAPCs) loaded with peptide/MHC complexes and anti-CD28 antibody.
Generation of pMHC/anti-CD28 coated beads, T-cell stimulations and readout was performed in a highly defined in vitro system using four different pMHC molecules per stimulation condition and 8 different pMHC molecules per readout condition.
The purified co-stimulatory mouse IgG2a anti human CD28 Ab 9.3 (Jung et al., 1987) was chemically biotinylated using Sulfo-N-hydroxysuccinimidobiotin as recommended by the manufacturer (Perbio, Bonn, Germany). Beads used were 5.6 μm diameter streptavidin coated polystyrene particles (Bangs Laboratories, Illinois, USA).
800.000 beads/200 μl were coated in 96-well plates in the presence of 4×12.5 ng different biotin-pMHC, washed and 600 ng biotin anti-CD28 were added subsequently in a volume of 200 μl. Stimulations were initiated in 96-well plates by co-incubating 1×10^6 CD8+ T cells with 2×10^5 washed coated beads in 200 μl TCM supplemented with 5 ng/ml IL-12 (PromoCell) for 3 days at 37° C. Half of the medium was then exchanged by fresh TCM supplemented with 80 U/ml IL-2 and incubating was continued for 4 days at 37° C. This stimulation cycle was performed for a total of three times. For the pMHC multimer readout using 8 different pMHC molecules per condition, a two-dimensional combinatorial coding approach was used as previously described (Andersen et al., 2012) with minor modifications encompassing coupling to 5 different fluorochromes. Finally, multimeric analyses were performed by staining the cells with Live/dead near IR dye (Invitrogen, Karlsruhe, Germany), CD8-FITC antibody clone SK1 (BD, Heidelberg, Germany) and fluorescent pMHC multimers. For analysis, a BD LSRII SORP cytometer equipped with appropriate lasers and filters was used. Peptide specific cells were calculated as percentage of total CD8+ cells. Evaluation of multimeric analysis was done using the FlowJo software (Tree Star, Oregon, USA). In vitro priming of specific multimer+CD8+ lymphocytes was detected by comparing to negative control stimulations.
Exemplary flow cytometry results after TUMAP-specific multimer staining for 3 peptides of the invention are shown in FIGS. 3A-3E together with corresponding negative controls.

Substance	Number of positive donors (CD4+ T cells)	Strength of response: mean in % above the background (CD4+ T cells)	in vitro immunogenicity: donors (CD8+ T cells)	in vitro immunogenicity: wells (CD8+ T cells)	tested positive for immunogenicity (antigen-stimulated CD4+ T-cell proliferation) (CD4+ T cells; positive: >0.02% stimulation above background, 5 uM peptide)
LAMC2-003 (DAVQMVITEAQKVDTR; listed as Homo sapiens)	3	0.27%			
CEA-006: IMA910 class II peptide, positive control with known in vivo immunogenicity (SPQYSWRINGIPQQHT; listed as Homo sapiens) [reference compound]	1	0.20%			
POSTN-002 (TNGVIHVVDKLLYPADT; listed as Homo sapiens)	2	0.39%			
LAMP3-002 (IQLIVQDKESVFSPR; listed as Homo sapiens)	5	0.25%			
MMP12-007 (LSADDIRGIQSLYGDPK; listed as Homo sapiens)	2	0.28%			
COL5A2-001 (VARLPIIDLAPVDVGGTD; listed as Homo sapiens)	2	0.21%			
COL11A1-001 (EGDIQQFLITGDPKAAYDY; listed as Homo sapiens)	5	0.19%			
MMP-001: IMA910 class II peptide, positive control with known in vivo immunogenicity (SQDDIKGIQKLYGKRS; listed as Homo sapiens) [reference compound]	2	0.09%			
IGF2BP3-002 (KLYIGNLSENAAPS; listed as Homo sapiens)	3	0.40%			
ITGB6-001 (NPVSQVEILKNKPLSVG; listed as Homo sapiens)	6	0.23%			
COL6A3-012 (RYPPPVREF; listed as Homo sapiens)			++++ (>= 70% = ++++)	++ (20%-49% = ++)	
ZNF697-001 (TYLTNHLRL; listed as Homo sapiens)			++++ (>= 70% = ++++)	++ (20%-49% = ++)	
SAMD9L-001 (IYQRWKDLL; listed as Homo sapiens)			+++ (50%-69% = +++)	+ (<20% = +)	
G2E-002 (LYINKANIW; listed as Homo sapiens)			++ (20%-49% = ++)	+ (<20% = +)	
OLFML2B-002 (YYYGNTLVEF; listed as Homo sapiens)			++ (20%-49% = ++)	+ (<20% = +)	
RYLDSLKAIVF (listed as Homo sapiens) [SEQ ID No. 28]			++++ (>= 70% = ++++)	+ (<20% = +)	
ABCC1-001 (VYVTIDENNIL; listed as Homo sapiens)			++ (20%-49% = ++)	+ (<20% = +)	
FAM83A-001 (PFLQASPHF; listed as Homo sapiens)			++++ (>= 70% = ++++)	++ (20%-49% = ++)	

Substance	Number of positive donors (CD4+ T cells)	Strength of response: mean in % above the background (CD4+ T cells)	in vitro immunogenicity: donors (CD8+ T cells)	in vitro immunogenicity: wells (CD8+ T cells)	tested positive for immunogenicity (antigen-stimulated CD4+ T-cell proliferation) (CD4+ T cells; positive: >0.02% stimulation above background, 5 uM peptide)
TYKYVDINTF (listed as Homo sapiens) [SEQ ID No. 159]			+++ (50%-69% = +++)	+ (<20% = +)	
PVRL1-001 (IYNPSMGVSVL; listed as Homo sapiens)			++ (20%-49% = ++)	+ (<20% = +)	
HSPBP-001 (RYLEAGAAGLRW; listed as Homo sapiens)			+ (<20% = +)	+ (<20% = +)	
SLC-003 (RYFPTQALNF; listed as Homo sapiens)			+ (<20% = +)	+ (<20% = +)	
FN1-002: selected HLA class II peptide antigen of the T-cell proliferation assay; probably the FN1 HLA-DR peptide SEQ ID No. 93 (SRPQAPITGYRIVYSPSV; listed as Homo sapiens)					exception
PPTC-001 (HYFNTPFQL; listed as Homo sapiens)			++++ (>= 70% = ++++)	++ (20%-49% = ++)	
NUP153-001 (VYFKPSLTPSGEF; listed as Homo sapiens)			+ (<20% = +)	+ (<20% = +)	
KFLEHTNFEF (listed as Homo sapiens) [SEQ ID No. 39]			++ (20%-49% = ++)	+ (<20% = +)	
MREG-001 (RYLFVVDRL; listed as Homo sapiens)			++++ (>= 70% = ++++)	++++ (>= 70% = ++++)	
TPS-001 (IYTRVTYYL; listed as Homo sapiens)			++++ (>= 70% = ++++)	++ (20%-49% = ++)	
COLEC12-001 (IYAGQWNDF; listed as Homo sapiens)			+++ (50%-69% = +++)	+ (<20% = +)	
TRPM2-001 (VYHSYLTIF; listed as Homo sapiens)			++++ (>= 70% = ++++)	++ (20%-49% = ++)	
GLS-001 (DYIPQLAKF; listed as Homo sapiens)			++++ (>= 70% = ++++)	+ (<20% = +)	
AHD-001 (EYSDVLAKLAF; listed as Homo sapiens)			+++ (50%-69% = +++)	+ (<20% = +)	
TTC13-001 (RYLEYFEKI; listed as Homo sapiens)			++++ (>= 70% = ++++)	+++ (50%-69% = +++)	
RYTLHINTL (listed as Homo sapiens) [SEQ ID No. 43]			++ (20%-49% = ++)	+ (<20% = +)	
COL6A3-013 (EYQPEMLEKF; listed as Homo sapiens)			+ (<20% = +)	+ (<20% = +)	

From patent publication US10526389B2, “Peptides and combinations of peptides for use in immunotherapy against lung cancer, including NSCLC and other cancers” (Immatics Biotechnologies GmbH, priority 2015, dated 2020)
